Reference: US6355799B1, “Substituted benzene compounds, process for their preparation, and herbicidal and defoliant compositions containing them” (ISK Americas Incorporated, priority 1997, dated 2002)

Assays:
Type in all cases: in vivo
[1] = test system: redroot pigweed (Amaranthus retroflexus, AMARE); assay: Pre-emerge test, greenhouse herbicide activity screening; details: rated 14 days after application, 0 = no damage, 100 = complete death
Outline: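 Compounds in acetone were track-sprayed at 15-1000 g ai/ha (187 l/ha) on sandy loam pots: pre-emerge one day after seeding, post-emerge at 2-3 leaf stage with 0.25% v/v non-ionic surfactant. Phytotoxicity was rated 14 days later on a 0 (no damage) to 100 (complete death) scale.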

[2] = test system: barnyardgrass (Echinochloa crus-galli, ECHCG); assay: as above; details: rated 14 days after application, 0 = no damage, 100 = complete death
Outline: (§1)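 Visual ratings on a 0-100 scale (0 no damage, 100 all plants dead) were taken at 14 days after treatment. Rates of 15-1000 g ai/ha in acetone, 187 l/ha, were sprayed onto soil one day after planting (pre-emerge) or onto 2-3 leaf plants with 0.25% v/v surfactant (post-emerge).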

[3] = test system: common ragweed (Ambrosia artemisizfolia L., AMBEL); assay: as above; details: rated 14 days after application, 0 = no damage, 100 = complete death
Outline: as §1

[4] = test system: green foxtail (Setaria viridis, SETVI); assay: as above; details: rated 14 days after application, 0 = no damage, 100 = complete death
Outline: as §1

[5] = test system: ivyleaf morningglory (Ipomoea hederacea, IPOHE); assay: as above; details: rated 14 days after application, 0 = no damage, 100 = complete death
Outline: as §1

[6] = test system: johnsongrass (Sorghum halepense, SORHA); assay: as above; details: rated 14 days after application, 0 = no damage, 100 = complete death
Outline: as §1

[7] = test system: lambsquarters (Chenopodium album, CHEAL); assay: as above; details: rated 14 days after application, 0 = no damage, 100 = complete death
Outline: as §1

[8] = test system: large crabgrass (Digitaria sanguinalis, DIGSA); assay: as above; details: rated 14 days after application, 0 = no damage, 100 = complete death
Outline: as §1

[9] = test system: sicklepod (Cassia obtusifolia, CASOB); assay: as above; details: rated 14 days after application, 0 = no damage, 100 = complete death
Outline: as §1

[10] = test system: velvetleaf (Abutilon theophrasti, ABUTH); assay: as above; details: rated 14 days after application, 0 = no damage, 100 = complete death
Outline: as §1

[11] = test system: field corn (Zea mays L., var. Dekalb 535, CORN); assay: Pre-emerge test, crop safety; details: rated 14 days after application, 0 = no damage, 100 = complete death
Outline: (§2)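 Rating: 0–100 visual injury, 14 DAA. Application: acetone, 187 l/ha, 15–1000 g ai/ha, flat-fan track sprayer with nozzle 40–45 cm above soil or canopy. Post-emerge runs used 0.25% v/v surfactant on 2–3 leaf plants.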

[12] = test system: upland rice (Oryza sp., var. Tebonnet, RICE); assay: Pre-emerge test, crop safety; details: rated 14 days after application, 0 = no damage, 100 = complete death
Outline: as §2

[13] = test system: barnyardgrass (Echinochloa crus-galli, ECHCG); assay: Post-emerge test, greenhouse herbicide activity screening; details: post-emerge, 14 days after application, rating scale 0-100
Outline: (§3)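 Applied at 15–1000 g ai/ha from acetone in 187 l/ha spray volume. Post-emergence applications included 0.25% v/v non-ionic surfactant and reached plants sown 8–21 days before. Pre-emergence applications were incorporated by surface watering. Efficacy or crop damage was rated on a 0–100 scale after 14 days.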

[14] = test system: common ragweed (Ambrosia artemisizfolia L., AMBEL); assay: as above; details: post-emerge, 14 days after application, rating scale 0-100
Outline: as §3

[15] = test system: green foxtail (Setaria viridis, SETVI); assay: as above; details: post-emerge, 14 days after application, rating scale 0-100
Outline: as §3

[16] = test system: ivyleaf morningglory (Ipomoea hederacea, IPOHE); assay: as above; details: post-emerge, 14 days after application, rating scale 0-100
Outline: as §3

[17] = test system: johnsongrass (Sorghum halepense, SORHA); assay: as above; details: post-emerge, 14 days after application, rating scale 0-100
Outline: as §3

[18] = test system: lambsquarters (Chenopodium album, CHEAL); assay: as above; details: post-emerge, 14 days after application, rating scale 0-100
Outline: as §3

[19] = test system: large crabgrass (Digitaria sanguinalis, DIGSA); assay: as above; details: post-emerge, 14 days after application, rating scale 0-100
Outline: as §3

[20] = test system: redroot pigweed (Amaranthus retroflexus, AMARE); assay: as above; details: post-emerge, 14 days after application, rating scale 0-100
Outline: as §3

[21] = test system: sicklepod (Cassia obtusifolia, CASOB); assay: as above; details: post-emerge, 14 days after application, rating scale 0-100
Outline: as §3

[22] = test system: velvetleaf (Abutilon theophrasti, ABUTH); assay: as above; details: post-emerge, 14 days after application, rating scale 0-100
Outline: as §3

[23] = test system: field corn (Zea mays L., var. Dekalb 535, CORN); assay: Post-emerge test, crop safety; details: post-emerge, 14 days after application, rating scale 0-100
Outline: as §1

[24] = test system: upland rice (Oryza sp., var. Tebonnet, RICE); assay: Post-emerge test, crop safety; details: post-emerge, 14 days after application, rating scale 0-100
Outline: as §1

COc1c(Cl)cc(F)c(-n2c(=O)cc(C(F)(F)F)n(C)c2=O)c1NC(=O)c1ccc(F)c(F)c1 [2-48]
60: phytotoxicity rating SORHA ([17]; 250 g ai/ha)
100: Pre-emerge Herbicidal Activity, phytotoxicity rating (0-100), AMARE ([1]; 63 g ai/ha) | Pre-emerge Herbicidal Activity, phytotoxicity rating (0-100), AMARE ([1]; 250 g ai/ha) | Pre-emerge Herbicidal Activity, phytotoxicity rating (0-100), ECHCG ([2]; 250 g ai/ha) | Pre-emerge Herbicidal Activity, phytotoxicity rating (0-100), AMBEL ([3]; 63 g ai/ha) | Pre-emerge Herbicidal Activity, phytotoxicity rating (0-100), AMBEL ([3]; 250 g ai/ha) | Pre-emerge Herbicidal Activity, phytotoxicity rating (0-100), SETVI ([4]; 63 g ai/ha) | Pre-emerge Herbicidal Activity, phytotoxicity rating (0-100), SETVI ([4]; 250 g ai/ha) | Pre-emerge Herbicidal Activity, phytotoxicity rating (0-100), IPOHE ([5]; 63 g ai/ha) | Pre-emerge Herbicidal Activity, phytotoxicity rating (0-100), IPOHE ([5]; 250 g ai/ha) | Pre-emerge Herbicidal Activity, phytotoxicity rating (0-100), CHEAL ([7]; 63 g ai/ha) | Pre-emerge Herbicidal Activity, phytotoxicity rating (0-100), CHEAL ([7]; 250 g ai/ha) | Pre-emerge Herbicidal Activity, phytotoxicity rating (0-100), DIGSA ([8]; 250 g ai/ha) | Pre-emerge Herbicidal Activity, phytotoxicity rating (0-100), CASOB ([9]; 63 g ai/ha) | Pre-emerge Herbicidal Activity, phytotoxicity rating (0-100), CASOB ([9]; 250 g ai/ha) | Pre-emerge Herbicidal Activity, phytotoxicity rating (0-100), ABUTH ([10]; 63 g ai/ha) | Pre-emerge Herbicidal Activity, phytotoxicity rating (0-100), ABUTH ([10]; 250 g ai/ha) | phytotoxicity rating AMBEL ([14]; 250 g ai/ha) | phytotoxicity rating IPOHE ([16]; 63 g ai/ha) | phytotoxicity rating IPOHE ([16]; 250 g ai/ha) | phytotoxicity rating CHEAL ([18]; 250 g ai/ha) | phytotoxicity rating AMARE ([20]; 250 g ai/ha) | phytotoxicity rating CASOB ([21]; 250 g ai/ha) | phytotoxicity rating ABUTH ([22]; 63 g ai/ha) | phytotoxicity rating ABUTH ([22]; 250 g ai/ha)
20: phytotoxicity rating SETVI ([15]; 63 g ai/ha) | phytotoxicity rating DIGSA ([19]; 250 g ai/ha)
85: Pre-emerge Herbicidal Activity, phytotoxicity rating (0-100), ECHCG ([2]; 63 g ai/ha) | phytotoxicity rating AMBEL ([14]; 63 g ai/ha)
99: Pre-emerge phytotoxicity rating (0-100), crop damage, CORN ([11]; 250 g ai/ha) | Pre-emerge phytotoxicity rating (0-100), crop damage, RICE ([12]; 250 g ai/ha)
50: phytotoxicity rating CASOB ([21]; 63 g ai/ha) | phytotoxicity rating CORN ([23]; 63 g ai/ha)
86: phytotoxicity rating RICE ([24]; 250 g ai/ha)
80: phytotoxicity rating ECHCG ([13]; 250 g ai/ha) | phytotoxicity rating RICE ([24]; 63 g ai/ha)
95: Pre-emerge Herbicidal Activity, phytotoxicity rating (0-100), SORHA ([6]; 63 g ai/ha) | Pre-emerge Herbicidal Activity, phytotoxicity rating (0-100), SORHA ([6]; 250 g ai/ha) | Pre-emerge Herbicidal Activity, phytotoxicity rating (0-100), DIGSA ([8]; 63 g ai/ha) | phytotoxicity rating CHEAL ([18]; 63 g ai/ha) | phytotoxicity rating AMARE ([20]; 63 g ai/ha)
90: Pre-emerge phytotoxicity rating (0-100), crop damage, CORN ([11]; 63 g ai/ha) | Pre-emerge phytotoxicity rating (0-100), crop damage, RICE ([12]; 63 g ai/ha)
70: phytotoxicity rating SETVI ([15]; 250 g ai/ha) | phytotoxicity rating CORN ([23]; 250 g ai/ha)
0: phytotoxicity rating ECHCG ([13]; 63 g ai/ha) | phytotoxicity rating DIGSA ([19]; 63 g ai/ha)
30: phytotoxicity rating SORHA ([17]; 63 g ai/ha)
